Measurements: ChEMBL document CHEMBL1201862, “PubChem BioAssay data set” (2004)
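Tested at 5 concentrations; 48 h exposure; 96-well plates; endpoints linearly interpolated, else capped at highest concentration. GI50 marks 50% less growth.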 The source made the active and inactive calls. No stated cut-off is given here; in the data, active = GI50 up to about 1.1 µM and inactive = higher.

How the values were obtained:
Assay in all cases: NCI anticancer screen, dose series, 48 h
[1] = tested on: NCI-H226
[2] = tested on: COLO 205
[3] = tested on: DLD-1
[4] = tested on: SNB-75
[5] = tested on: UACC-62
[6] = tested on: SW-620
[7] = tested on: NCI-H23
[8] = tested on: KM-20L2
[9] = tested on: SNB-19
[10] = tested on: SK-OV-3
[11] = tested on: TK-10
[12] = tested on: SK-MEL-28
[13] = tested on: HOP-92
[14] = tested on: SF-539
[15] = tested on: MOLT-4
[16] = tested on: CAKI-1
[17] = tested on: OVCAR-3
[18] = tested on: HCT-15
[19] = tested on: SF-268
[20] = tested on: DMS-273
[21] = tested on: 786-0
[22] = tested on: OVCAR-4
[23] = tested on: SF-295
[24] = tested on: SN12C
[25] = tested on: UACC-257
[26] = tested on: SK-MEL-2
[27] = tested on: NCI-H460
[28] = tested on: Malme-3M
[29] = tested on: HCC 2998
[30] = tested on: KM12
[31] = tested on: HOP-62
[32] = tested on: DMS-114
[33] = tested on: K562
[34] = tested on: SNB-78
[35] = tested on: U-251
[36] = tested on: M14
[37] = tested on: RXF 631
[38] = tested on: A498
[39] = tested on: SK-MEL-5
[40] = tested on: LXFL 529
[41] = tested on: SR
[42] = tested on: LOX IMVI
[43] = tested on: NCI-H522
[44] = tested on: M19-MEL
[45] = tested on: HT-29
[46] = tested on: ACHN
[47] = tested on: IGROV-1
[48] = tested on: HOP-18
[49] = tested on: OVCAR-8
[50] = tested on: OVCAR-5
[51] = tested on: HL-60
[52] = tested on: A549
[53] = tested on: HCT-116
[54] = tested on: RXF 393
[55] = tested on: EKVX
[56] = tested on: UO-31
[57] = tested on: CCRF-CEM
[58] = tested on: RPMI-8226

## O=C1CCC(c2nc3cc(Cl)ccc3o2)C(=O)N1 (centres undefined)
[1]
  GI50: > 100 µM (inactive)
[2]
  GI50: > 100 µM (inactive)
[3]
  GI50: > 100 µM (inactive)
[4]
  GI50: 64.7 µM (inactive)
[5]
  GI50: > 100 µM (inactive)
[6]
  GI50: > 100 µM (inactive)
[7]
  GI50: > 100 µM (inactive)
[8]
  GI50: > 100 µM (inactive)
[9]
  GI50: > 100 µM (inactive)
[10]
  GI50: > 100 µM (inactive)
[11]
  GI50: > 100 µM (inactive)
[12]
  GI50: > 100 µM (inactive)
[13]
  GI50: > 100 µM (inactive)
[14]
  GI50: > 100 µM (inactive)
[15]
  GI50: > 100 µM (inactive)
[16]
  GI50: > 100 µM (inactive)
[17]
  GI50: > 100 µM (inactive)
[18]
  GI50: > 100 µM
[19]
  GI50: > 100 µM (inactive)
[20]
  GI50: > 100 µM (inactive)
[21]
  GI50: > 100 µM (inactive)
[22]
  GI50: > 100 µM (inactive)
[23]
  GI50: > 100 µM (inactive)
[24]
  GI50: > 100 µM (inactive)
[25]
  GI50: > 100 µM (inactive)
[26]
  GI50: > 100 µM (inactive)
[27]
  GI50: > 100 µM (inactive)
[28]
  GI50: > 100 µM (inactive)
[29]
  GI50: > 100 µM (inactive)
[30]
  GI50: > 100 µM (inactive)
[31]
  GI50: > 100 µM (inactive)
[32]
  GI50: > 100 µM (inactive)
[33]
  GI50: > 100 µM (inactive)
[34]
  GI50: > 100 µM (inactive)
[35]
  GI50: > 100 µM (inactive)
[36]
  GI50: > 100 µM (inactive)
[37]
  GI50: > 100 µM (inactive)
[38]
  GI50: > 100 µM (inactive)
[39]
  GI50: > 100 µM (inactive)
[40]
  GI50: > 100 µM (inactive)
[41]
  GI50: > 100 µM (inactive)
[42]
  GI50: > 100 µM (inactive)
[43]
  GI50: > 100 µM (inactive)
[44]
  GI50: > 100 µM (inactive)
[45]
  GI50: > 100 µM (inactive)
[46]
  GI50: > 100 µM (inactive)
[47]
  GI50: > 100 µM (inactive)
[48]
  GI50: > 100 µM (inactive)
[49]
  GI50: > 100 µM (inactive)
[50]
  GI50: > 100 µM (inactive)
[51]
  GI50: > 100 µM (inactive)
[52]
  GI50: > 100 µM (inactive)
[53]
  GI50: > 100 µM (inactive)
[54]
  GI50: > 100 µM (inactive)
[55]
  GI50: > 100 µM (inactive)
[56]
  GI50: > 100 µM (inactive)
[57]
  GI50: > 100 µM (inactive)

## CC1CCC(C(C)C)C(O[C@@H]2OC(=O)C[C@@H]2Sc2ccccc2)C1 (some centres undefined)
[2]
  GI50: 18.5 µM (inactive)
[3]
  GI50: 33.1 µM (inactive)
[4]
  GI50: 33.3 µM (inactive)
[5]
  GI50: 24.7 µM (inactive)
[6]
  GI50: 18.2 µM (inactive)
[7]
  GI50: 26.2 µM (inactive)
[8]
  GI50: > 10 µM (inactive)
[9]
  GI50: 35.1 µM (inactive)
[10]
  GI50: 49.8 µM (inactive)
[11]
  GI50: 53.3 µM (inactive)
[12]
  GI50: 22.3 µM (inactive)
[14]
  GI50: 23.5 µM (inactive)
[15]
  GI50: 12 µM (inactive)
[16]
  GI50: 23.3 µM (inactive)
[17]
  GI50: 14.5 µM (inactive)
[18]
  GI50: 19.5 µM
[19]
  GI50: 24.4 µM (inactive)
[20]
  GI50: 18.4 µM (inactive)
[21]
  GI50: 21 µM (inactive)
[22]
  GI50: 15.9 µM (inactive)
[23]
  GI50: 21.1 µM (inactive)
[24]
  GI50: 16.8 µM (inactive)
[25]
  GI50: 16.3 µM (inactive)
[26]
  GI50: 17.5 µM (inactive)
[27]
  GI50: 24.5 µM (inactive)
[28]
  GI50: 18.5 µM (inactive)
[29]
  GI50: 24.7 µM (inactive)
[30]
  GI50: 20.3 µM (inactive)
[31]
  GI50: 32.1 µM (inactive)
[32]
  GI50: 19.5 µM (inactive)
[33]
  GI50: 19.1 µM (inactive)
[58]
  GI50: 13.3 µM (inactive)
[34]
  GI50: 25.3 µM (inactive)
[35]
  GI50: > 10 µM (inactive)
[36]
  GI50: 23.2 µM (inactive)
[37]
  GI50: 21.2 µM (inactive)
[38]
  GI50: 28.6 µM (inactive)
[39]
  GI50: 16.2 µM (inactive)
[40]
  GI50: 19.1 µM (inactive)
[42]
  GI50: 13.1 µM (inactive)
[44]
  GI50: 24 µM (inactive)
[45]
  GI50: 17.5 µM (inactive)
[46]
  GI50: 20 µM (inactive)
[47]
  GI50: 40.2 µM (inactive)
[49]
  GI50: 18.9 µM (inactive)
[50]
  GI50: 43 µM (inactive)
[51]
  GI50: 18.2 µM (inactive)
[52]
  GI50: 24.9 µM (inactive)
[53]
  GI50: 25.9 µM (inactive)
[54]
  GI50: 13.4 µM (inactive)
[55]
  GI50: 34 µM (inactive)
[56]
  GI50: > 10 µM (inactive)
[57]
  GI50: 7.01 µM (inactive)

## CC12CC[C@@H](C(C)(C)O)C1[C@@H](O)CC1(C)C2CCC2[C@@]3(C)CC[C@H](O)C(C)(C)C3C(O)C[C@]21C (some centres undefined)
[2]
  GI50: 15.6 µM (inactive)
[3]
  GI50: 19.8 µM (inactive)
[5]
  GI50: 15.6 µM (inactive)
[6]
  GI50: 18 µM (inactive)
[7]
  GI50: 16.1 µM (inactive)
[8]
  GI50: 10 µM (inactive)
[9]
  GI50: 21.1 µM (inactive)
[11]
  GI50: 16.4 µM (inactive)
[12]
  GI50: 16.8 µM (inactive)
[13]
  GI50: 17.4 µM (inactive)
[14]
  GI50: 15.8 µM (inactive)
[15]
  GI50: 4.07 µM (inactive)
[17]
  GI50: 16.8 µM (inactive)
[18]
  GI50: 11.5 µM
[19]
  GI50: 14.9 µM (inactive)
[21]
  GI50: 12.1 µM (inactive)
[22]
  GI50: 13.1 µM (inactive)
[23]
  GI50: 18.3 µM (inactive)
[24]
  GI50: 13.4 µM (inactive)
[25]
  GI50: > 10 µM (inactive)
[26]
  GI50: 18.7 µM (inactive)
[27]
  GI50: 15.3 µM (inactive)
[28]
  GI50: 13.8 µM (inactive)
[29]
  GI50: 16.3 µM (inactive)
[30]
  GI50: 14.6 µM (inactive)
[32]
  GI50: 13.6 µM (inactive)
[33]
  GI50: 11.8 µM (inactive)
[58]
  GI50: 21.3 µM (inactive)
[34]
  GI50: 14.6 µM (inactive)
[35]
  GI50: 13.4 µM (inactive)
[36]
  GI50: 19.9 µM (inactive)
[37]
  GI50: 18.5 µM (inactive)
[38]
  GI50: 13.5 µM (inactive)
[39]
  GI50: 4.07 µM (inactive)
[40]
  GI50: 14 µM (inactive)
[44]
  GI50: 24.3 µM (inactive)
[45]
  GI50: 12.6 µM (inactive)
[46]
  GI50: 13.1 µM (inactive)
[47]
  GI50: 17.7 µM (inactive)
[48]
  GI50: 24.6 µM (inactive)
[49]
  GI50: 16.5 µM (inactive)
[50]
  GI50: 17.5 µM (inactive)
[51]
  GI50: 5.27 µM (inactive)
[52]
  GI50: 11.5 µM (inactive)
[53]
  GI50: 11.4 µM (inactive)
[54]
  GI50: 6.85 µM (inactive)
[55]
  GI50: 13.2 µM (inactive)
[56]
  GI50: 21.6 µM (inactive)
[57]
  GI50: 11.3 µM (inactive)
